{"source": "patent US11266645B2", "about": "“Methods for treating lymphoma” (Alexion Pharmaceuticals, Inc., priority 2018, dated 2022)", "key": {"[1]": {"test_system": "CLL tumor cell surface CD5, CD69, CD86, CXCR4", "experiment": "CLL tumor cell surface marker expression by FACS", "assay_type": "in vivo, human", "details": "C2D1 vs C1D1, two CLL patients", "method": "For PD assessments, serial blood samples were drawn into lithium-heparin vacutainer tubes on Day 1 prior to dosing and again at 0.5, 1, 2, and 4 hours post-dose; on Day 8 at pre-dose and 2 hours post-dose; and Day 28 prior to dosing. Multiple assays were performed using the Day 1 and Day 8 PD samples. SYK-mediated BCR signaling in whole blood was measured prior to and post-dosing by stimulating 100 μL whole blood with 2 μL of anti-human IgD (IgG fraction) and 10 μg anti-human IgM for 10 minutes at 37° C., measuring the induction of pSYK Y525/526, pAKT S473, and pERK Y204. Similarly, whole blood was stimulated with 10 ng/mL of IL-2 (JAK1/3-dependent), IL-4 (JAK1/3-dependent), IL-6 (JAK1/TYK2-dependent) or GM-CSF (JAK2-dependent) for 20 minutes, measuring the induction of pSTAT5 Y694 in T-cells and NK cells, the induction of pSTAT6 Y641 in B cells, T-cells, NK cells, and monocytes, the induction of pSTAT3 Y705 in monocytes, B cells, and T-cells, and the induction of pSTAT5 Y694 in monocytes, respectively. The technical details for these assays were described in Coffey, G., et al., J Pharmacol Exp Ther, 2014. 351(3): p. 538-48. With blood samples from the CLL patients only, tumor cell surface expression of CD5, CD69, CD86, and CXCR4 pre-dose on days 1 and 28 were monitored. The recommended volume of antibodies were applied directly to 100 μL whole blood and incubated for 1 hour at room temperature. Afterwards, 4 mL of BD Lyse/Fix reagent was added to the blood to lyse red blood cells and fix the remaining leukocytes, followed by washing and FACS analysis. For each assay, data were collected using an LSR II instrument (BD Bioscience, San Jose, Calif.) and analyzed using Flowjo software (Flowjo LLC, Ashland, Oreg.). Data were normalized to the induction of each parameter prior to dosing on day 1 to generate percent inhibition post-dosing."}, "[2]": {"test_system": "SU-DHL6 xenograft", "experiment": "SU-DHL6 xenograft in Nude mice", "assay_type": "in vivo", "details": "tumors treated with cerdulatinib", "method": "Xenograft studies in Nude mice were performed to evaluate cerdulatinib and venetoclax in combination. Nude mice were inoculated with […] SU-DHL6 cells subcutaneously. Once tumors reached 200 mm^3, the mice were randomized into 4 groups: vehicle, cerdulatinib alone, venetoclax alone, or a combination of cerdulatinib and venetoclax."}, "[3]": {"test_system": "U-CLL cells and M-CLL cells", "experiment": "IL-4 treated U-CLL and M-CLL cells, immunoblotting", "assay_type": "cell-based, human", "details": "1 μM, 10 ng/mL IL-4, 24 hours", "method": "U-CLL cells and M-CLL cells were treated with and without 10 ng/mL IL-4 for 24 hours in the presence or absence of 1 μM cerdulatinib. Immunoblotting was used to protein expression among the different treatments. […] FIGS. 10A-10G, 11A-11G and 12A-12G show the fold changes of the protein expression."}, "[4]": {"test_system": "Primary CLL cells", "experiment": "Primary CLL cells with IL-4/CD40L, immunoblotting and annexin V/PI viability", "assay_type": "cell-based, human", "method": "Combination studies were performed with 10 or 100 nM venetoclax or 300 and 1000 nM S63846. Cell viability was assessed by annexin V/PI using flow cytometry and changes in protein expression by immunoblotting."}, "[5]": {"test_system": "patients with relapsed/refractory (r/r) B- and T-cell lymphoma", "experiment": "Phase 2 study of cerdulatinib 30 mg BID in relapsed/refractory B- and T-cell lymphoma (Example 2)", "assay_type": "in vivo, human", "method": "This study intended to confirm the safety and efficacy of cerdulatinib dosed 30 mg orally BID in patients with relapsed/refractory (r/r) B- and T-cell lymphoma. Dose reductions were permitted to a minimum of 15 mg BID. Response was assessed by Lugano Classification criteria.\nNinety nine patients enrolled (FL: 36, CLL/SLL: 28, PTCL: 18, marginal zone lymphoma: 8, aggressive: 5, Waldenstrom's macroglobulinemia: 4) (Table 4). Median age is 68 (42-93) and median # of prior therapies is 3 (1-13) (Table 5). 30 patients had prior BTK, PI3K or BCL-2 inhibitor therapy. The most common AEs of any grade are diarrhea (42%), fatigue (36%), and nausea (32%). Grade 3+ AEs occurring in ≥5% patients are neutropenia (18%), lipase increase (15%), pneumonia (12%), diarrhea (10%), and fatigue (7%). 5 patients have had Grade 5 infections considered related to study drug (3 of 5 in the CLL cohort). The target PK range has been achieved with an average SSCmin of ˜0.8 μM."}}, "note": "“And” between values parts separate entries of the source, which are not always exact repeats. Equal values may be shown once."}
{"molecule": "CCS(=O)(=O)N1CCN(c2ccc(Nc3ncc(C(N)=O)c(NC4CC4)n3)cc2)CC1", "note": "[cerdulatinib, 4-(cyclopropylamino)-2-((4-(4-(ethylsulfonyl)piperazin-1-yl)phenyl)amino)pyrimidine-5-carboxamide]", "values": [{"measurement": "CD5 expression", "setting": "[1]", "value": "reduced"}, {"measurement": "CXCR4 expression", "setting": "[1]", "value": "enhanced"}, {"measurement": "expression of surface activation markers CD69 and CD86", "setting": "[1]", "value": "decreased expression"}, {"measurement": "Bim expression in tumors", "setting": "[2]", "value": "increase"}, {"measurement": "MCL-1 in tumors", "setting": "[2]", "value": "no change"}, {"measurement": "IL-4 induced increase of GABA1, FOXP1, SOCS1, and SOCS3 protein expression", "setting": "[3]", "value": "suppresses"}, {"measurement": "IL-4/CD40L induced Mcl-1 and Bcl-XL expression", "setting": "[4]; 1 μM", "value": "significantly reduced"}, {"measurement": "inhibition of Mcl-1 and Bcl-XL compared to the other kinase inhibitors", "setting": "[4]; 1 μM", "value": "more robust inhibition"}, {"measurement": "synergy with venetoclax to induce apoptosis", "setting": "[4]; CLL cells", "value": "synergized"}, {"measurement": "Bim induction compared to idelalisib and ibrutinib", "setting": "[4]; equivalent drug concentrations", "value": "induced to greater levels"}, {"measurement": "duration of durable PR", "setting": "[5]; CLL patient relapsed on BTK inhibitor", "value": "≥ 5", "unit": "months"}, {"measurement": "CR (%)", "setting": "[5]; CLL/SLL", "value": "(4) %"}, {"measurement": "CR, number of patients", "setting": "[5]; CLL/SLL", "value": 1}, {"measurement": "PD (%)", "setting": "[5]; CLL/SLL", "value": "(4) %"}, {"measurement": "PD, number of patients", "setting": "[5]; CLL/SLL", "value": 1}, {"measurement": "PR (%)", "setting": "[5]; CLL/SLL", "value": "(57) %"}, {"measurement": "PR, number of patients", "setting": "[5]; CLL/SLL", "value": 16}, {"measurement": "ORR", "setting": "[5]; CLL/SLL, N 28", "value": 61, "unit": "%"}, {"measurement": "CR, number of patients", "setting": "[5]; DLBCL, tFL, and MCL", "value": 0}, {"measurement": "PD (%)", "setting": "[5]; DLBCL, tFL, and MCL", "value": 60, "unit": "%"}, {"measurement": "PD, number of patients", "setting": "[5]; DLBCL, tFL, and MCL", "value": 3}, {"measurement": "PR (%)", "setting": "[5]; DLBCL, tFL, and MCL", "value": 20, "unit": "%"}, {"measurement": "PR, number of patients", "setting": "[5]; DLBCL, tFL, and MCL", "value": 1}, {"measurement": "ORR", "setting": "[5]; DLBCL, tFL, and MCL, N 5", "value": 20, "unit": "%"}, {"measurement": "CR (%)", "setting": "[5]; FL", "value": "(10) %"}, {"measurement": "CR, number of patients", "setting": "[5]; FL", "value": 3}, {"measurement": "PD (%)", "setting": "[5]; FL", "value": "(10) %"}, {"measurement": "PD, number of patients", "setting": "[5]; FL", "value": 3}, {"measurement": "PR (%)", "setting": "[5]; FL", "value": "(39) %"}, {"measurement": "PR, number of patients", "setting": "[5]; FL", "value": 12}, {"measurement": "duration of durable PR", "setting": "[5]; FL patient relapsed on BTK inhibitor", "value": 12, "unit": "months"}, {"measurement": "ORR", "setting": "[5]; FL, N 31", "value": 49, "unit": "%"}, {"measurement": "CR, number of patients", "setting": "[5]; Other Indolent Lymphoma", "value": 0}, {"measurement": "PD (%)", "setting": "[5]; Other Indolent Lymphoma", "value": 33, "unit": "%"}, {"measurement": "PD, number of patients", "setting": "[5]; Other Indolent Lymphoma", "value": 4}, {"measurement": "PR (%)", "setting": "[5]; Other Indolent Lymphoma", "value": 42, "unit": "%"}, {"measurement": "PR, number of patients", "setting": "[5]; Other Indolent Lymphoma", "value": 5}, {"measurement": "ORR", "setting": "[5]; Other Indolent Lymphoma, N 12", "value": 42, "unit": "%"}, {"measurement": "CR (%)", "setting": "[5]; PTCL", "value": 33, "unit": "%"}, {"measurement": "PD (%)", "setting": "[5]; PTCL", "value": 33, "unit": "%"}, {"measurement": "PD, number of patients", "setting": "[5]; PTCL", "value": 5}, {"measurement": "PR (%)", "setting": "[5]; PTCL", "value": 13, "unit": "%"}, {"measurement": "PR, number of patients", "setting": "[5]; PTCL", "value": 2}, {"measurement": "study drug-related Serious Adverse Events (SAEs), number", "setting": "[5]; PTCL (n=16), Grade 3 to 4", "value": 4}, {"measurement": "duration of durable PR", "setting": "[5]; PTCL patient relapsed on tenalisib", "value": "≥ 3", "unit": "months"}, {"measurement": "AEs of any grade: diarrhea", "setting": "[5]; PTCL patients", "value": 33, "unit": "%"}, {"measurement": "AEs of any grade: fatigue", "setting": "[5]; PTCL patients", "value": 22, "unit": "%"}, {"measurement": "AEs of any grade: lipase increase", "setting": "[5]; PTCL patients", "value": 17, "unit": "%"}, {"measurement": "AEs of any grade: nausea", "setting": "[5]; PTCL patients", "value": 17, "unit": "%"}, {"measurement": "Grade 3+ AEs: diarrhea, number of patients", "setting": "[5]; PTCL patients", "value": 3}, {"measurement": "Grade 3+ AEs: lipase increase, number of patients", "setting": "[5]; PTCL patients", "value": 2}, {"measurement": "Grade 3+ AEs: neutropenia, number of patients", "setting": "[5]; PTCL patients", "value": 4}, {"measurement": "Grade 3+ AEs: pneumonia, number of patients", "setting": "[5]; PTCL patients", "value": 2}, {"measurement": "deaths or discontinuations due to Treatment Emergent Adverse Events", "setting": "[5]; PTCL patients (n=16)", "value": "no deaths or discontinuations"}, {"measurement": "CR, number of patients", "setting": "[5]; PTCL, 15 evaluable", "value": 5}, {"measurement": "ORR", "setting": "[5]; PTCL, N 15, 30 mg BID", "value": 47, "unit": "%"}, {"measurement": "duration of durable PR", "setting": "[5]; SLL patient relapsed on venetoclax", "value": "≥ 18", "unit": "months"}, {"measurement": "duration of durable PR", "setting": "[5]; WM patient relapsed on BTK inhibitor", "value": "≥ 7", "unit": "months"}, {"measurement": "AEs of any grade: diarrhea", "setting": "[5]; all 99 patients", "value": 42, "unit": "%"}, {"measurement": "AEs of any grade: fatigue", "setting": "[5]; all 99 patients", "value": 36, "unit": "%"}, {"measurement": "AEs of any grade: nausea", "setting": "[5]; all 99 patients", "value": 32, "unit": "%"}, {"measurement": "Grade 3+ AEs: diarrhea", "setting": "[5]; all 99 patients", "value": 10, "unit": "%"}, {"measurement": "Grade 3+ AEs: fatigue", "setting": "[5]; all 99 patients", "value": 7, "unit": "%"}, {"measurement": "Grade 3+ AEs: lipase increase", "setting": "[5]; all 99 patients", "value": 15, "unit": "%"}, {"measurement": "Grade 3+ AEs: neutropenia", "setting": "[5]; all 99 patients", "value": 18, "unit": "%"}, {"measurement": "Grade 3+ AEs: pneumonia", "setting": "[5]; all 99 patients", "value": 12, "unit": "%"}, {"measurement": "patients with Grade 5 infections considered related to study drug", "setting": "[5]; all 99 patients, 3 of 5 in the CLL cohort", "value": 5, "unit": "patients"}, {"measurement": "time on treatment of PTCL patients with CR still on drug", "setting": "[5]; first (two) responding PTCL patients", "value": "11 months and 12 months and 8 months"}, {"measurement": "response durations", "setting": "[5]; first two PTCL patients achieving a response (both CRs)", "value": "10 months and 6 months"}, {"measurement": "Toxicities ≥ Grade 3: Asthenia/Fatigue", "setting": "[5]; r/r PTCL, N = 16", "value": 6.3, "unit": "%"}, {"measurement": "Toxicities ≥ Grade 3: Diarrhea/Colitis", "setting": "[5]; r/r PTCL, N = 16", "value": 6.3, "unit": "%"}, {"measurement": "Toxicities ≥ Grade 3: Infection", "setting": "[5]; r/r PTCL, N = 16", "value": 18.8, "unit": "%"}, {"measurement": "Toxicities ≥ Grade 3: Neutropenia", "setting": "[5]; r/r PTCL, N = 16", "value": 6.3, "unit": "%"}]}
